Data taken from US10420819B2 (Extend Biosciences, Inc., priority 2014, dated 2019).

What was measured:
blood glucose levels = experiment: Blood glucose lowering pharmacodynamics in rats (Amplex Red Glucose/Glucose Oxidase Assay); type: in vivo; conditions: intravenous administration (FIG. 6)
Procedure: Blood glucose levels were determined in rats injected with free glucose and the conjugates using the Amplex Red Glucose/Glucose Oxidase Assay Kit (Invitrogen, Carlsbad, Calif., Cat. No. A22189).

[1] = rat

Row | Substance | blood glucose lowering ability in vivo (blood glucose levels) | in vivo half life [1] | duration of stably reduced blood glucose levels (blood glucose levels)
1 | 20K-PEG-insulin: 20 kD PEG-NHS conjugated to human insulin, one 20 kD PEG; benchmark therapeutic (see EP2288375) | did not display significant glucose lowering ability for an extended time | improved the in vivo half life | 
2 | VitD-(25)-PEG2K-insulin: 2 KDa PEG scaffold on carbon 25 of vitamin D, carrier conjugated to lysine 29 on the insulin B-chain |  | improved the in vivo half life | approximately eight
